Assay results from patent publication US20180179499A1, “BIOBASED PRODUCTION OF FUNCTIONALIZED ALPHA-SUBSTITUTED ACRYLATES AND C4-DICARBOXYLATES” (BIOAMBER INC., priority 2015, published 2018).

B1: acnA: E coli aconitase acnA, endogenous dehydratase, GenBank CAA42834 (protein, UniProt P25516 2-891, looked up)
Aconitate hydratase A: SSTLREASKDTLQAKDKTYHYYSLPLAAKSLGDITRLPKSLKVLLENLLRWQDGNSVTEEDIHALAGWLKNAHADREIAYRPARVLMQDFTGVPAVVDLAAMREAVKRLGGDTAKVNPLSPVDLVIDHSVTVDRFGDDEAFEENVRLEMERNHERYVFLKWGKQAFSRFSVVPPGTGICHQVNLEYLGKAVWSELQDGEWIAYPDTLVGTDSHTTMINGLGVLGWGVGGIEAEAAMLGQPVSMLIPDVVGFKLTGKLREGITATDLVLTVTQMLRKHGVVGKFVEFYGDGLDSLPLADRATIANMSPEYGATCGFFPIDAVTLDYMRLSGRSEDQVELVEKYAKAQGMWRNPGDEPIFTSTLELDMNDVEASLAGPKRPQDRVALPDVPKAFAASNELEVNATHKDRQPVDYVMNGHQYQLPDGAVVIAAITSCTNTSNPSVLMAAGLLAKKAVTLGLKRQPWVKASLAPGSKVVSDYLAKAKLTPYLDELGFNLVGYGCTTCIGNSGPLPDPIETAIKKSDLTVGAVLSGNRNFEGRIHPLVKTNWLASPPLVVAYALAGNMNINLASEPIGHDRKGDPVYLKDIWPSAQEIARAVEQVSTEMFRKEYAEVFEGTAEWKGINVTRSDTYGWQEDSTYIRLSPFFDEMQATPAPVEDIHGARILAMLGDSVTTDHISPAGSIKPDSPAGRYLQGRGVERKDFNSYGSRRGNHEVMMRGTFANIRIRNEMVPGVEGGMTRHLPDSDVVSIYDAAMRYKQEQTPLAVIAGKEYGSGSSRDWAAKGPRLLGIRVVIAESFERIHRSNLIGMGILPLEFPQGVTRKTLGLTGEEKIDIGDLQNLQPGATVPVTLTRADGSQEVVPCRCRIDTATELTYYQNDGILHYVIRNMLK
B2: SpLys4mt3: Lys4 mutant D123N, V125F, I194L, Schizosaccharomyces pombe (protein, UniProt Q9Y823 1-418, looked up, variant D123N V125F I194L)
chain: MSVSEANGTETIKPPMNGNPYGPNPSDFLSRVNNFSIIESTLREGEQFANAFFDTEKKIQIAKALDNFGVDYIELTSPVASEQSRQDCEAICKLGLKCKILTHIRCHMDDARVAVETGVDGVNVFIGTSQYLRKYSHGKDMTYIIDSATEVINFVKSKGIEVRFSSEDSFRSDLVDLLSLYKAVDKIGVNRVGLADTVGCATPRQVYDLIRTLRGVVSCDIECHFHNDTGMAIANAYCALEAGATHIDTSILGIGERNGITPLGALLARMYVTDREYITHKYKLNQLRELENLVADAVEVQIPFNNYITGMCAFTHKAGIHAKAILANPSTYEILKPEDFGMSRYVHVGSRLTGWNAIKSRAEQLNLHLTDAQAKELTVRIKKLADVRTLAMDDVDRVLREYHADLSDADRITKEASA

Legend:
[1] = system: potential yeast hosts (I. orientalis, S. cerevisiae); test: Tolerance of potential yeast hosts: maximum concentration in which growth was detected; format: cell-based; settings: Table E
Protocol: (§1) Two eukaryotic strains, I. orientalis and S. cerevisiae, were tested at pH 3 and pH 5. Three bacterial strains were tested using their individual optimal conditions. E. coli and C. glutamicum were tested at pH 8 and 30° C., and B. firmus was tested at pH 9 and 37° C. I. orientalis was grown in defined yeast media consisting of 5 g/L ammonium sulfate, 0.5 g/L magnesium sulfate heptahydrate, 3 g/L potassium phosphate monobasic, 10 g/L dextrose, 1 mL/L of 10% glycerol stock, 1 mL/L of 1000× trace. The 1000× trace stock solution contains 4 g/L ZnSO4.7H2O, 2 g/L FeSO4.7H2O, 1 g/L MnSO4.H2O, 0.2 g/L CuSO4.5H2O, and 0.8 mL/L H2SO4. S. cerevisiae was grown in buffered defined dextrose media consisting of 50 g/L dextrose, 5 g/L yeast extract, and 40 mL/L 25× DM salts. The 25× DM salt stock solution contains 125 g/L ammonium sulfate, 12.5 g/L magnesium sulfate heptahydrate, 75 g/L potassium phosphate monobasic, and 787.5 g/L water. The bacterial strains were grown in standard LB media consisting of 10 g/L bacto-tryptone, 5 g/L yeast extract, 10 g/L NaCl, and 20 g/L dextrose with addition of 20 g/L glucose.
(§2) Time points were taken over a period of at least 8 hours and up to 24 hours to calculate the rate of growth. Specific growth rate was determined by plotting the natural logarithm of cell number against time. Tolerance was determined by growth rate of cells in the presence of the compound as compared to in the absence of the compound.
(§3) Two eukaryotic strains, I. orientalis and S. cerevisiae, were tested for tolerance to the selected compounds at pH 3 and pH 5. The bacterial strains were grown at their individual optimal conditions, E coli and C. glutamicum at pH 8 and 30° C., and B. firmus and B. cohnii at pH 9 and 37° C. I. orientalis was grown in defined yeast media consisting of 5 g/L ammonium sulfate, 0.5 g/L magnesium sulfate heptahydrate, 3 g/L potassium phosphate monobasic, 10 g/L dextrose, 1 mL/L of 10% glycerol stock, 1 mL/L of 1000× trace. The 1000× trace stock solution contains 4 g/L ZnSO4.7H2O, 2 g/L FeSO4.7H2O, 1 g/L MnSO4.H2O, 0.2 g/L CuSO4.5H2O, and 0.8 mL/L H2SO4. S. cerevisiae was grown in buffered defined dextrose media consisting of 50 g/L dextrose, 5 g/L yeast extract, and 40 mL/L 25×DM salts. The 25×DM salt stock solution contains 125 g/L ammonium sulfate, 12.5 g/L magnesium sulfate heptahydrate, 75 g/L potassium phosphate monobasic, and 787.5 g/L water. The bacterial strains were grown in standard LB media consisting of 10 g/L bacto-tryptone, 5 g/L yeast extract, 10 g/L NaCl, and 20 g/L dextrose with addition of 20 g/L glucose.
as §2

[2] = system: potential bacterial hosts (E. coli, C. glutamicum, B. firmus, B. cohnii); test: Tolerance of potential bacterial hosts: highest concentration with growth observed; format: cell-based; settings: Table F, max conc tested 100 g/L
Protocol: as §1, §2, §3, §2

E. coli = test: Host tolerance: growth rate with compound versus unchallenged cells; format: cell-based; settings: pH 8, 30° C.
Protocol: Two eukaryotic strains, I. orientalis and S. cerevisiae, were tested at pH 3 and pH 5. Three bacterial strains were tested using their individual optimal conditions. E. coli and C. glutamicum were tested at pH 8 and 30° C., and B. firmus was tested at pH 9 and 37° C. I. orientalis was grown in defined yeast media consisting of 5 g/L ammonium sulfate, 0.5 g/L magnesium sulfate heptahydrate, 3 g/L potassium phosphate monobasic, 10 g/L dextrose, 1 mL/L of 10% glycerol stock, 1 mL/L of 1000× trace. The 1000× trace stock solution contains 4 g/L ZnSO4.7H2O, 2 g/L FeSO4.7H2O, 1 g/L MnSO4.H2O, 0.2 g/L CuSO4.5H2O, and 0.8 mL/L H2SO4. […]
as §2, with “compound. […]” for “compound.”
as §2

C. glutamicum = test: as above; format: cell-based; settings: pH 8, 30° C.
Protocol: (§4) Potential hosts for the described pathways to alpha substituted C4 dicarboxylic acids were identified by determining the tolerance to functionalized alpha substituted dicarboxylic acids as shown in FIG. 2. Specific functionalized alpha substituted C4 dicarboxylic acid compounds were selected to assess tolerance of bacterial and eukaryotic hosts.
as §1
(§5) Time points were taken over a period of at least 8 hours and up to 24 hours to calculate the rate of growth. Specific growth rate was determined by plotting the natural logarithm of cell number against time. Tolerance was determined by growth rate of cells in the presence of the compound as compared to in the absence of the compound. The scoring method is indicated in Table D. The results of the tolerance studies are shown in Tables E and F. The second column from the left denotes the maximum concentration of the indicated compound in which growth was detected. […] I. orientalis is also a suitable host for most of the compounds.
(§6) Potential hosts for the described pathways to alpha substituted acrylic acid were identified by determining the tolerance to functionalized alpha substituted acrylic acid end-products as shown generally in FIGS. 1 and 3 and more specifically in FIGS. 9 and 10. […]
(§7) Time points were taken over a period of at least 8 hours and up to 24 hours to calculate the rate of growth. Specific growth rate was determined by plotting the natural logarithm of cell number against time. […]

B. firmus = test: as above; format: cell-based; settings: pH 9, 37° C.
Protocol: as §4, §1, §5, §6, §7

[3] = Dehydratase assay: lysate incubated with itatartaric acid, HPLC/NMR; format: biochemical; settings: knockout E coli strains (acnA or acnB deleted), lysate with ITT overnight at 30° C., HPLC
Protocol: E. coli optimized genes encoding dehydratases are synthesized and cloned into pTrcHisA (Life Technologies (formerly Invitrogen)). Dehydratase candidates are found in Table I. Plasmids containing the optimized synthase genes are transformed into BL21 E. coli cells. Empty plasmid pTrcHisA are also transformed as a negative control. […]. Flasks are incubated at 30° C. at 250 rpm shaking for 2 hours, then protein production is induced with 0.2 mM IPTG and incubated for 4 more hours at 30° C. while shaking. Cells are harvested by centrifugation and pellets are stored at −80° C.
Cells are lysed using mechanical disruption using a BeadBeater (BopSpec products, Bartlesville, Okla.) using the manufacturer's instructions. […] Protein concentrations of the resulting clarified lysates are measured via BioRad total Protein assay using the manufacturer's instructions. […]
The reaction mixture contains 100 mM TAPS buffer pH 6.8, 100 mM KCl, 100 mM substrate alpha (hydroxymethyl) maleic acid. […] The reactions in these microplates are monitored at 235 nm. Readings are taken every 9 seconds for 10 minutes and the data is used to calculate activities of each enzyme. Background absorbance is measured by the same reaction with no substrate present are subtracted. […]
The lysates were incubated with or without a known amount of synthesized ITT overnight at 30° C., and then the samples were analyzed by HPLC. […]

[4] = Synthase activity assay (DTNB, lysates of BL21 E. coli expressing the candidate); format: biochemical; settings: Table H, wild type and mutant synthases; 0.5 mM hydroxypyruvate
Protocol: E coli optimized genes encoding synthases were synthesized and cloned into pTrcHisA (Life Technologies (formerly Invitrogen)). Synthase genes tested are found in Table G. Plasmids containing the optimized synthase genes were transformed into BL21 E. coli cells. Empty plasmid pTrcHisA was also transformed as a negative control. […]. Flasks were incubated at 30° C. at 250 rpm shaking for 2 hours, then protein production was induced with 0.2 mM IPTG and incubated for 4 more hours at 30° C. while shaking. Cells were harvested by centrifugation and pellets were stored at −80° C.
Activity of synthase candidates was assessed with an in vitro assay using DTNB (5,5′-Dithiobis(2-nitrobenzoic acid)) as an indicator. The enzyme activity was tested using either no substrate or hydroxypyruvate as the substrate. The DTNB interacts with the free thio created by the condensation of acetyl-CoA and the substrate present. Unless otherwise specified, all chemicals were purchased from Sigma-Aldrich Chemical Company, St. Louis, Mo.
Cells were lysed using mechanical disruption using a BeadBeater (BopSpec products, Bartlesville, Okla.) following the manufacturer's instructions. The cell lysate was partially clarified by centrifugation (14,000G for 5 minutes). Protein concentrations of the resulting clarified lysates were measured via BioRad total Protein assay using the manufacturer's instructions. Lysates were normalized by protein concentration in 100 mM Tris buffer. The normalized lysates were diluted 1 to 7 in 100 mM Tris buffer. 20 μl of lysate was added to each well for the 96-well plate assay. Each condition was performed in triplicate.
The reaction mixture contains 100 mM Tris pH 7.4, 5 mM MgSO4, 0.2 mM acetyl-CoA, 0.5 mM DTNB, 0.5 mM substrate, hydroxypyruvate. To start the reaction, 180 μl of reaction mix was added to each well already containing 20 μl lysate. The reactions in these microplates were monitored at 412 nm. Readings were taken every 9 seconds for 10 minutes and the data was used to calculate activities of each enzyme. Synthase activity was observed when hydroxypyruvate was the substrate as compared to cells containing empty vector (FIG. 20(a), Table G). Background absorbance as measured by the same reaction with no substrate present were subtracted. Error bars in the graphs reflect the standard deviations calculated for the averages for each condition performed in triplicate. Specific mutations change the activity of the enzymes tested (FIG. 20(b), Table H). Further enzyme engineering will improve specificity and activity of desired enzymatic reaction.

Row | Molecule | Max conc (maximum concentration in which growth was detected) [1] [g/L] | Highest conc with growth observed [2] [g/L] | Tolerance score (percent growth rate as compared to unchallenged cells) (E. coli) | Tolerance score (percent growth rate as compared to unchallenged cells) (C. glutamicum) | Tolerance score (percent growth rate as compared to unchallenged cells) (B. firmus) | Formation of ITT dehydration product [3] | Activity with hydroxy pyruvate [4]
1 | O=C(O)CC1(C(=O)O)CCC(=O)O1 (stereo not drawn) [Homocitrate lactone] | 100 | 100 | +++ (100-90%) | − (10-0%) | − (10-0%) |  | 
2 | O=C(O)CC[C@@](O)(CC(=O)O)C(=O)O [Homocitrate] | 100 | 50 | − (10-0%) | +++ (100-90%) | − (10-0%) |  | 
3 | B1 |  |  |  |  |  | capable of producing the observed dehydration product | 
4 | B2 |  |  |  |  |  |  | 0.013
